Key:
USP1-UAF1 = USP1-UAF1 (Homo sapiens, UniProt O94782); assay: Ubiquitin Rhodamine assay for USP1-UAF1 activity; type: biochemical
Procedure: Certain compounds of the disclosure were assessed for USP1-UAF1 activity in a Ubiquitin Rhodamine assay as described in Example 135.

[1] = test system: MDA-MB-436 (BRCA1 mutant) cell line; assay: Viability assay in BRCA1 mutant cell line MDA-MB-436; type: cell-based; conditions: Homo sapiens, MDA-MB-436, viability, BRCA1 mutant MDA-MB-436; read-out: MDA-MB-436 rel IC50
Text: (§1) Table 1 also indicates IC50 values in a viability assay for a non-isogenic pair of BRCA1 mutant (column 5—MDA-MB-436) and BRCA1 WT (column 6—HCC1954) cell lines. These values indicate the effect of treatment with compound on cell survival.

[2] = test system: HCC1954 (BRCA1 WT) cell line; assay: Viability assay in BRCA1 WT cell line HCC1954; type: cell-based; conditions: Homo sapiens, read-out: HCC 1954 IC50 rel IC50
Text: as §1

monoubiquitinated PCNA = assay: AlphaLISA assay measuring monoubiquitinated PCNA in MDA-MB-436; type: cell-based; conditions: Homo sapiens, read-out: Alpha LISA IC50
Text: Table 1 also indicates IC50 values for exemplary compounds in an AlphaLISA assay measuring monoubiquitinated PCNA in a BRCA1 mutant cell line (MDA-MB-436; column 7).

Chain of USP1-UAF1 (O94782 whole entry): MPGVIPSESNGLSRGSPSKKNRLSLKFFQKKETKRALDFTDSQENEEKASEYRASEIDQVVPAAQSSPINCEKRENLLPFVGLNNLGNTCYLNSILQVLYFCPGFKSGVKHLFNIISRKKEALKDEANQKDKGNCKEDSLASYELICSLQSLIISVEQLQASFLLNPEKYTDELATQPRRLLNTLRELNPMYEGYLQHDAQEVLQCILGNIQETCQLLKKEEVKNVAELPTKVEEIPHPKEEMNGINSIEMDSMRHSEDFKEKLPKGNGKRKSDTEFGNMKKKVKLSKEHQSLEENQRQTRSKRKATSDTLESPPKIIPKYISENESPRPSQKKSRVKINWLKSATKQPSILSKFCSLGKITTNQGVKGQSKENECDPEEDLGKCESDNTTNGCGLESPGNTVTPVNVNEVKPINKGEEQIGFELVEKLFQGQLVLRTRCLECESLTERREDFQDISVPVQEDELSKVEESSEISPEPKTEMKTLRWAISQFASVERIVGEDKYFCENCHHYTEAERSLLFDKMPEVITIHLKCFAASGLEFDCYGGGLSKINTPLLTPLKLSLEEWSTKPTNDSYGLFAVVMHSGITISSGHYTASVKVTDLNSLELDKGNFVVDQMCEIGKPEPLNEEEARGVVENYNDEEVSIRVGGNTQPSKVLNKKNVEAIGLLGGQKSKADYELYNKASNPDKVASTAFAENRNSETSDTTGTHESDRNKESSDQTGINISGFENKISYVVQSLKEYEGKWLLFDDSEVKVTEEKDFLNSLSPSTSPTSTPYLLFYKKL
Chain of USP1-UAF1 (Q8TAF3 whole entry partner): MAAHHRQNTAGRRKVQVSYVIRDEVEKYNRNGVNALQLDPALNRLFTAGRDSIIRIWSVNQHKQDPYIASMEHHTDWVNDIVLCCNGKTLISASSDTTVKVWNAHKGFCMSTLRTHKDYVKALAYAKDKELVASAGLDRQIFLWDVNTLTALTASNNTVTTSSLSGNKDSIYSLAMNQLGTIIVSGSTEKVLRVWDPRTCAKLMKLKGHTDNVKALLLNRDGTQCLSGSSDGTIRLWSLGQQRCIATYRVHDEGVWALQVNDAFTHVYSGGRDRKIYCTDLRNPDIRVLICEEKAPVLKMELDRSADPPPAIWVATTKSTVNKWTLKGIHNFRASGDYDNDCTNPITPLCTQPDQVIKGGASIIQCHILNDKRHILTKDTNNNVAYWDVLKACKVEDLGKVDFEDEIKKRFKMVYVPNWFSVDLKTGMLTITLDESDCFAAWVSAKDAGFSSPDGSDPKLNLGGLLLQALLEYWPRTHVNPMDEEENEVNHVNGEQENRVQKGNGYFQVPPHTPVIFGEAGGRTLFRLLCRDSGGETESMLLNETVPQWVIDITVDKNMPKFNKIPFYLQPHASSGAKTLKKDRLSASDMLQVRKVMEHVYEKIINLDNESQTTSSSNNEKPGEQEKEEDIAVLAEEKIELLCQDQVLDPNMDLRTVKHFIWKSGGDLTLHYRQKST

SMILES | IC50 (USP1-UAF1) [nM] | IC50 [1] [nM] | IC50 [2] [nM] | IC50 (monoubiquitinated PCNA) [nM]
COc1ncnc(C2CC2)c1-c1ncc2[nH]nc(Cc3ccc(-c4nc(C(F)(F)F)cn4C)cc3C)c2n1 [Compound 196] | < 30 | < 100 | ≥ 10000 | < 100
COc1ncnc(C2CC2)c1-c1ncc2[nH]cc(C(O)(c3ccc(-c4nc(C(F)(F)F)cn4C)cc3)C(C)C)c2n1 (stereo not drawn) [Compound 199] | 100 to 10000 | 100 to 250 | 250 to 10000 | 100 to 250
COCCn1cc(Cc2ccc(-c3nc(C(F)(F)F)cn3C)cc2)c2nc(-c3c(OC)ncnc3C3CC3)ncc21 [Compound 200, 2-(4-cyclopropyl-6-methoxy-pyrimidin-5-yl)-5-(2-methoxyethyl)-7-[[4-[1-methyl-4-(trifluoromethyl)imidazol-2-yl]phenyl]methyl]pyrrolo[3,2-d]pyrimidine] | 30 to 100 | < 100 | ≥ 10000 | < 100
COc1ncnc(C2(F)CC2)c1-c1ncc2[nH]nc(Cc3ccc(-c4nc(C(F)(F)F)cn4C)cc3)c2n1 [Compound 202, 5-[4-(1-fluorocyclopropyl)-6-methoxy-pyrimidin-5-yl]-3-[[4-[1-methyl-4-(trifluoromethyl)imidazol-2-yl]phenyl]methyl]-1H-pyrazolo[4,3-d]pyrimidine] | < 30 | < 100 | ≥ 10000 | < 100
COc1ncnc(C2CC2)c1-c1ncc2[nH]cc(Cc3ccc(-c4nc(C(F)(F)F)cn4C)cc3C)c2n1 [Compound 203, 2-(4-cyclopropyl-6-methoxy-pyrimidin-5-yl)-7-[[2-methyl-4-[1-methyl-4-(trifluoromethyl)imidazol-2-yl]phenyl]methyl]-5H-pyrrolo[3,2-d]pyrimidine] | < 30 | < 100 | ≥ 10000 | < 100
[2H]C([2H])([2H])Oc1ncnc(C2CC2)c1-c1ncc2[nH]cc(Cc3ccc(-c4nc(C(F)(F)F)cn4C)cc3)c2n1 [Compound 204, 2-[4-cyclopropyl-6-(trideuteriomethoxy)pyrimidin-5-yl]-7-[[4-[1-methyl-4-(trifluoromethyl)imidazol-2-yl]phenyl]methyl]-5H-pyrrolo[3,2-d]pyrimidine] | < 30 | < 100 | ≥ 10000 | < 100

Now from value to molecule:

IC50 (USP1-UAF1) [nM] | IC50 [1] [nM] | IC50 [2] [nM] | IC50 (monoubiquitinated PCNA) [nM] | SMILES
< 30 | < 100 | ≥ 10000 | < 100 | COc1nccc(C2CC2)c1-c1ncc2[nH]nc(Cc3ccc(-c4nc(C(F)(F)F)cn4C)cc3)c2n1 [Compound 205, 5-(4-cyclopropyl-2-methoxy-3-pyridyl)-3-[[4-[1-methyl-4-(trifluoromethyl)imidazol-2-yl]phenyl]methyl]-1H-pyrazolo[4,3-d]pyrimidine]
< 30 | < 100 | 250 to 10000 | < 100 | COc1ncnc(C2CC2)c1-c1ncc2[nH]nc(Cc3ccc(-c4nc(C(F)(F)F)cn4C4CC4)cc3)c2n1 [Compound 206]
100 to 10000 | 250 to 10000 | ≥ 10000 | 250 to 10000 | COc1ncnc(C2CC2)c1-c1ncc2[nH]c(C)c(C(O)c3ccc(-c4nc(C(F)(F)F)cn4C)cc3)c2n1 (stereo not drawn) [Compound 207, [2-(4-cyclopropyl-6-methoxy-pyrimidin-5-yl)-6-methyl-5H-pyrrolo[3,2-d]pyrimidin-7-yl]-[4-[1-methyl-4-(trifluoromethyl)imidazol-2-yl]phenyl]methanol]

— patent US20240182481A1 (Tango Therapeutics, Inc., priority 2021, published 2024)
